Experimental findings from paper PMC9516332 (Frontiers in Oncology, 2022) are described below.

Like-named read-outs stand apart in the source and are kept apart here.

Holding throughout (assay): Kinase panel profiling at 1 µmol/L (MSA or IMAP), percentage inhibition
Holding throughout (format): biochemical

In assay [1] the target is T1, panel of 255 wild-type kinases (Homo sapiens, UniProt O60285).
T1 sequence (O60285 1-661): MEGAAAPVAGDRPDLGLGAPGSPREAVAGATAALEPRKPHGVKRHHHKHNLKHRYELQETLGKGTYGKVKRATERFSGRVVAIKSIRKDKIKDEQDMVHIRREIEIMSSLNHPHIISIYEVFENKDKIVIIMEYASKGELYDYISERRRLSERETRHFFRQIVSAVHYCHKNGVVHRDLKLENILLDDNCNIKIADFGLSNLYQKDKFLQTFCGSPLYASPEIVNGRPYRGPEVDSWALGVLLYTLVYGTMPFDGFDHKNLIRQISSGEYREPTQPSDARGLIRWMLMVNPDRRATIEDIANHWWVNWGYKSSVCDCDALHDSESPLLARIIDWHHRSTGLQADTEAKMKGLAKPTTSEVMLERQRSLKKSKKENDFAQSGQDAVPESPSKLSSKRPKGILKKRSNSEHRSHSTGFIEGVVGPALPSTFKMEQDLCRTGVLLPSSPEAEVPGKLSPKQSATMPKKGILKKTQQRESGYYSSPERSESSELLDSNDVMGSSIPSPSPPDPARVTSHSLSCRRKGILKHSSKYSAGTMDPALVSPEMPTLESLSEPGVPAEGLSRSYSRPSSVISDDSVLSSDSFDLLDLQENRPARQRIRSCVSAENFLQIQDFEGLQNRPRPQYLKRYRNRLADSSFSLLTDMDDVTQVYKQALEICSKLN
Conditions: read-out: %-inhibition, NuaK1.

The target in assay [2] is panel of 255 wild-type kinases (Homo sapiens, UniProt O95819). The settings on record: read-out: %-inhibition at 1 µmol/L, HGK.
Assay [3] has as its target panel of 255 wild-type kinases (Homo sapiens, UniProt P12931). Conditions: read-out: %-inhibition at 1 µmol/L, SRC.
Assay [4] deals with T2, panel of 255 wild-type kinases (Homo sapiens, UniProt Q96PY6).
T2 sequence (Q96PY6 1-1258): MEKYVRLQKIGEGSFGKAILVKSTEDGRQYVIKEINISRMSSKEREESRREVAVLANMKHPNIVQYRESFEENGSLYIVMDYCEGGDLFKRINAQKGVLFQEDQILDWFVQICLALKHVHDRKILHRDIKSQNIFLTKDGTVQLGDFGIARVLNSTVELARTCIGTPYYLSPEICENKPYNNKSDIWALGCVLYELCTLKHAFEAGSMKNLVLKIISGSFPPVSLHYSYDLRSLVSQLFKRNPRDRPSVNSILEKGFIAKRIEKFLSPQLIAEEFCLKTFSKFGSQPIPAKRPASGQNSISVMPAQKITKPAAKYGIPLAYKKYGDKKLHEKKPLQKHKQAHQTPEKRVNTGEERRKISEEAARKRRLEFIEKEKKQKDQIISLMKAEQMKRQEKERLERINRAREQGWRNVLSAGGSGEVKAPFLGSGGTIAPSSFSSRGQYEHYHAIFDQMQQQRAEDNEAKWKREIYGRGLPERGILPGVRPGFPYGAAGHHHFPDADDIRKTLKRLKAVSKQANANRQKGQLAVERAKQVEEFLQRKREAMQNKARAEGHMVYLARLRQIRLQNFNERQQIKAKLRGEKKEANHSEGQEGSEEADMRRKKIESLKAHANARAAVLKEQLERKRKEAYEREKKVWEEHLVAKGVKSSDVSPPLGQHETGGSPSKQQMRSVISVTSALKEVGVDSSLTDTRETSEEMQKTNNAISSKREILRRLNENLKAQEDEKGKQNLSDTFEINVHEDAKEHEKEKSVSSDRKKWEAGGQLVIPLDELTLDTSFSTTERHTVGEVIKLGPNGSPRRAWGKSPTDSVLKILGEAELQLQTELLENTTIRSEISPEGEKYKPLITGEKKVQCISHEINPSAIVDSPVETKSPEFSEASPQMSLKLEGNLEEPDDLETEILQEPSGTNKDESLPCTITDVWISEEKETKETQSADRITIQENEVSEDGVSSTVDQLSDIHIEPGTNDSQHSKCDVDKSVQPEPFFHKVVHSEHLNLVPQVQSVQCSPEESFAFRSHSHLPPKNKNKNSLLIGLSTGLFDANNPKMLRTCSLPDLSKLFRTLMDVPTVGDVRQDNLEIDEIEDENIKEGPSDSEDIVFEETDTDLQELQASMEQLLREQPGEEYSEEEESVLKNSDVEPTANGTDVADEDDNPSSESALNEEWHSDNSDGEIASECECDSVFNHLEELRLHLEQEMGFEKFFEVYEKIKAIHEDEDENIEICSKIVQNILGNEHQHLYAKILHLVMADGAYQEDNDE
Conditions: read-out: %-inhibition, NEK1.

The target in assay [5] is panel of 255 wild-type kinases (Homo sapiens, UniProt Q9P289). The settings on record: read-out: %-inhibition, MST4.
Where [6] appears, read: NuaK1, 1 µmol/L single concentration.
Setting [7] is: kinase HGK, 1 µmol/L single concentration.
[8] abbreviates: kinase SRC, 1 µmol/L single concentration.
Setting [9] is: NEK1, 1 µmol/L single concentration.
Setting [10] is: MST4, 1 µmol/L single concentration.

Turning to `Cn1cc(-c2cc3c(N4CCN(c5ncc([C@@](C)(N)c6ccc(F)cc6)cn5)CC4)ncnn3c2)cn1` [avapritinib], the inhibition at 1 µM in assay [1] (setting [6]) came out at 85%; in assay [2] (setting [7]), 37%; in assay [3] (setting [8]) it was 66%; in assay [4] (setting [9]), 56%; in assay [5] (setting [10]) it was 7%.

On to `C[C@H](Nc1ncnc2nc[nH]c12)c1cc2cccc(Cl)c2c(=O)n1-c1ccccc1` [duvelisib], for which the inhibition at 1 µM in assay [1] (setting [6]) was 0.44%; in assay [2] (setting [7]) it was 2%; in assay [3] (setting [8]) it was -1.74%; in assay [4] (setting [9]), -3.74%; in assay [5] (setting [10]), -3.25%.

Turning to `COc1cc2ncnc(Nc3ccc(F)c(Cl)c3)c2cc1NC(=O)/C=C/CN1CCCCC1` [dacomitinib], the inhibition at 1 µM was determined as 11% in assay [1] (setting [6]); 39% in assay [2] (setting [7]); 44% in assay [3] (setting [8]); 0.762% in assay [4] (setting [9]); 12% in assay [5] (setting [10]).

As for `CCN1CCN(c2ccc(Nc3cc(N(C)C(=O)Nc4c(Cl)c(OC)cc(OC)c4Cl)ncn3)cc2)CC1` [infigratinib], the inhibition at 1 µM in assay [1] (setting [6]) was 8%; in assay [2] (setting [7]) it was 15%; in assay [3] (setting [8]), 37%; in assay [4] (setting [9]), -5%; in assay [5] (setting [10]), -10%.

With `Cn1cnc2c(F)c(Nc3ccc(Br)cc3Cl)c(C(=O)NOCCO)cc21` [selumetinib], the inhibition at 1 µM in assay [1] (setting [6]) is 6%; in assay [2] (setting [7]), 1.58%; in assay [3] (setting [8]) it was -2.83%; in assay [4] (setting [9]), -5%; in assay [5] (setting [10]), -0.349%.

As to `CNC(=O)c1ccc(-c2cnc3ncc(Cc4ccc5ncccc5c4)n3n2)cc1F` [capmatinib], the inhibition at 1 µM in assay [1] was -1.53%; in assay [2], 2.68%; in assay [3] it was -1.77%; in assay [4], -8%; in assay [5], -2.24%.

In the case of `COC(=O)N[C@@H](C)CNc1nccc(-c2cn(C(C)C)nc2-c2cc(Cl)cc(NS(C)(=O)=O)c2F)n1` [encorafenib], the inhibition at 1 µM was -0.237% in assay [1] (setting [6]); 7.59% in assay [2] (setting [7]); -2.16% in assay [3] (setting [8]); 2.84% in assay [4] (setting [9]); -4.45% in assay [5] (setting [10]).

In the case of `Cc1cc(Nc2ncnc3ccc(NC4=NC(C)(C)CO4)cc23)ccc1Oc1ccn2ncnc2c1` [tucatinib], the inhibition at 1 µM was 9% in assay [1] (setting [6]); 3.65% in assay [2] (setting [7]); -2% in assay [3] (setting [8]); 1.77% in assay [4] (setting [9]); 3% in assay [5] (setting [10]).

For the compound `C=CC(=O)N1CCC([C@@H]2CCNc3c(C(N)=O)c(-c4ccc(Oc5ccccc5)cc4)nn32)CC1` [zanubrutinib], the inhibition at 1 µM in assay [1] (setting [6]) was -7%; in assay [2] (setting [7]), 5.63%; in assay [4] (setting [9]) it was -4%; in assay [5] (setting [10]), -1%.

In the case of `Cn1cnc2c(F)c(Nc3ccc(Br)cc3F)c(C(=O)NOCCO)cc21` [binimetinib], the inhibition at 1 µM was -4.32% in assay [1] (setting [6]); 3.18% in assay [2] (setting [7]); -0.525% in assay [3] (setting [8]); -1.21% in assay [4] (setting [9]); 0.492% in assay [5] (setting [10]).

Regarding `COc1ccc(CN2C3CC2CN(c2ccc(-c4cc(OCC(C)(C)O)cn5ncc(C#N)c45)cn2)C3)cn1` [selpercatinib], the inhibition at 1 µM in assay [1] (setting [6]) was 10%; in assay [2] (setting [7]), 7%; in assay [3] (setting [8]), 48%; in assay [4] (setting [9]) it was -0.568%; in assay [5] (setting [10]) it was 2.38%.

For `CCN1C(=O)N(c2c(F)c(OC)cc(OC)c2F)Cc2cnc3[nH]c(CN4CCOCC4)cc3c21` [pemigatinib], the inhibition at 1 µM in assay [1] (setting [6]) was -2.15%; in assay [2] (setting [7]), 4.64%; in assay [3] (setting [8]) it was 2.67%; in assay [4] (setting [9]) it was 10%; in assay [5] (setting [10]), 56%.

On to `CN1CCN(c2ccc(C(=O)Nc3n[nH]c4ccc(Cc5cc(F)cc(F)c5)cc34)c(NC3CCOCC3)c2)CC1` [entrectinib], for which the inhibition at 1 µM is 102% in assay [1] (setting [6]); 7% in assay [2] (setting [7]); 95% in assay [3] (setting [8]); -3.78% in assay [4] (setting [9]); 6% in assay [5] (setting [10]).

For `CO[C@]1(C(=O)N[C@@H](C)c2ccc(-n3cc(F)cn3)nc2)CC[C@H](c2nc(C)cc(Nc3cc(C)[nH]n3)n2)CC1` [pralsetinib], the inhibition at 1 µM in assay [1] (setting [6]) was 91%; in assay [2] (setting [7]), 3%; in assay [3] (setting [8]), 94%; in assay [4] (setting [9]), -5%; in assay [5] (setting [10]), -1.47%.

Turning to `C[C@H]1Oc2cc(cnc2N)-c2c(nn(C)c2C#N)CN(C)C(=O)c2ccc(F)cc21` [lorlatinib], the inhibition at 1 µM is 26% in assay [1] (setting [6]); 1% in assay [2] (setting [7]); 28% in assay [3] (setting [8]); 0.741% in assay [4] (setting [9]); -8% in assay [5] (setting [10]).

In the case of `CCn1c(=O)c(-c2cc(NC(=O)Nc3ccccc3)c(F)cc2Br)cc2cnc(NC)cc21` [ripretinib], the inhibition at 1 µM was 4.32% in assay [1] (setting [6]); 13% in assay [2] (setting [7]); 71% in assay [3] (setting [8]); -1.3% in assay [4] (setting [9]); -0.174% in assay [5] (setting [10]).

`Cc1nc(NC(=O)N2CCC[C@H]2C(N)=O)sc1-c1ccnc(C(C)(C)C(F)(F)F)c1` [alpelisib]: the inhibition at 1 µM in assay [1] (setting [6]) is 9%; in assay [2] (setting [7]) it was 2.66%; in assay [3] (setting [8]), 3.29%; in assay [4] (setting [9]), -0.542%; in assay [5] (setting [10]) it was -12%.

With `FC(F)(F)c1ccc(CNc2ccc(Cc3c[nH]c4ncc(Cl)cc34)cn2)cn1` [pexidartinib], the inhibition at 1 µM is 8% in assay [1] (setting [6]); 24% in assay [2] (setting [7]); 0.371% in assay [3] (setting [8]); -1.38% in assay [4] (setting [9]); 7% in assay [5] (setting [10]).

Consider `CCc1nc(C(N)=O)c(Nc2ccc(N3CCC(N4CCN(C)CC4)CC3)c(OC)c2)nc1NC1CCOCC1` [gilteritinib], for which the inhibition at 1 µM in assay [1] (setting [6]) was determined as 98%; in assay [2] (setting [7]) it was 96%; in assay [3] (setting [8]), 89%; in assay [4] (setting [9]) it was 5.59%; in assay [5] (setting [10]), 4.67%.

Consider `O=C(Nc1cnn2ccc(N3CCC[C@@H]3c3cc(F)ccc3F)nc12)N1CC[C@H](O)C1` [larotrectinib], for which the inhibition at 1 µM is 13% in assay [1] (setting [6]); 2.53% in assay [2] (setting [7]); -4.39% in assay [3] (setting [8]); -2.72% in assay [4] (setting [9]); 1.67% in assay [5] (setting [10]).
